Results: ChEMBL document CHEMBL4017496 (J Med Chem, 2017)
Active and inactive are the calls of the source. The rule behind the calls is not given here.

Columns and labels:
[1] = target: T1, Oxysterols receptor LXR-beta (Homo sapiens) (UniProt P55055); assay: Binding affinity to human LXRbeta at 4 uM by TR-FRET assay
T1 sequence (whole entry): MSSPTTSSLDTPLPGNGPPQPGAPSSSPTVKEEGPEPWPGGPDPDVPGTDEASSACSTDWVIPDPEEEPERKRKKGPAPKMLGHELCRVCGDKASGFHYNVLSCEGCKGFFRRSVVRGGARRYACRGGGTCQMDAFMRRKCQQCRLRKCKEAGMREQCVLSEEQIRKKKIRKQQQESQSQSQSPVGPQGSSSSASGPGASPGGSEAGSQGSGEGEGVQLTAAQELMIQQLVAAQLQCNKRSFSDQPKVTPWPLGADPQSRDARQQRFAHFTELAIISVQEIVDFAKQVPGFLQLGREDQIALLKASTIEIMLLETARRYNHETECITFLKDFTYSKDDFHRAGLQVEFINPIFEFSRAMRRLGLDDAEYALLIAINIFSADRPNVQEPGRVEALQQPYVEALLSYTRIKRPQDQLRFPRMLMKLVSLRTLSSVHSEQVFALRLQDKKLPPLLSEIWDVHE

Mesenchymal stem cell = assay: Induction of adipogenesis in human bone marrow-derived mesenchymal stem cells assessed as increase in adiponectin production at 20.4 uM after 7 days in presence of IDX; type: functional, cell-based
[2] = target: T2, Glucocorticoid receptor (Homo sapiens) (UniProt P04150); assay: Displacement of Fluormone-GS1 from human GST-tagged glucocorticoid receptor LBD at 4 uM by TR-FRET assay
T2 sequence (whole entry): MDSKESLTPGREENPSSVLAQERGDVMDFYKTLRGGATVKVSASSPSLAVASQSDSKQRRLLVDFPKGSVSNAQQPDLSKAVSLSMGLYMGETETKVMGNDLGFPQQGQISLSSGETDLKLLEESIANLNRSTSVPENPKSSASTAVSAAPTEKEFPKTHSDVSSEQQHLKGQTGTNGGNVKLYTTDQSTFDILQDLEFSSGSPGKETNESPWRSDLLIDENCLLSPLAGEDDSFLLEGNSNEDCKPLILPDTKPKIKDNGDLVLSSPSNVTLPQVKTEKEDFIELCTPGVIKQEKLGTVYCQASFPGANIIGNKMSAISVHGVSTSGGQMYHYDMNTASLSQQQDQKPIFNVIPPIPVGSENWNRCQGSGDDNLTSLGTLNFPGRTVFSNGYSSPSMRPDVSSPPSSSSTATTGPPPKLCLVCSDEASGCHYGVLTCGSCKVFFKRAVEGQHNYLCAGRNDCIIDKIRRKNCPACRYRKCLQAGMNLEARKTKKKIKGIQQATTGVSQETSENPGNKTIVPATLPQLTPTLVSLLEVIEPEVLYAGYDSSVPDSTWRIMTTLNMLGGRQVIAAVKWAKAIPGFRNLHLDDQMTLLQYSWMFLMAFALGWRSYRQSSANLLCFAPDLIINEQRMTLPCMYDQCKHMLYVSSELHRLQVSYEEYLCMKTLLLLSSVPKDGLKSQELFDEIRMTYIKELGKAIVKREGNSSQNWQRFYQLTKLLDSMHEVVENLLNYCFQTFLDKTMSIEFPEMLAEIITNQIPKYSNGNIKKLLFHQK

Mus musculus = assay: Antidiabetic activity in STZ-induced diabetic C57BL/6J mouse assessed as insulin sensitivity by measuring reduction of serum lactate level at 20 mg/kg,po for 5 days; type: functional, organism-based
[3] = target: T3, Peroxisome proliferator-activated receptor alpha (Homo sapiens) (UniProt Q07869); assay: Displacement of Fluormone-Pan-PPAR Green from human GST-tagged PPARalpha LBD at 20 uM by TR-FRET assay relative to control
T3 sequence (whole entry): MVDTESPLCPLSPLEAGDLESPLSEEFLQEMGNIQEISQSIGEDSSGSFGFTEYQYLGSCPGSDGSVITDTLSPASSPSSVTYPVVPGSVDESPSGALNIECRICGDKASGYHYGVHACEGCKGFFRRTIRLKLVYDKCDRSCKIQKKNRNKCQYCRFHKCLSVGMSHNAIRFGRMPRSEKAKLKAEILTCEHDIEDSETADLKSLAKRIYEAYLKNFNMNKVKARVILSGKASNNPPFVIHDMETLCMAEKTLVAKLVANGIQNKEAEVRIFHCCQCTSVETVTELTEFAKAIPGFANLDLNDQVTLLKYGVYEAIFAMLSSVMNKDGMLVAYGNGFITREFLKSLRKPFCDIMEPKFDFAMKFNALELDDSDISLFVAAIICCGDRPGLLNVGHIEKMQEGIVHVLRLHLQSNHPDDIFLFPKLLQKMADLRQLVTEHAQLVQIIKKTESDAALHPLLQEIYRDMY

[4] = target: T4, Peroxisome proliferator-activated receptor delta (Homo sapiens) (UniProt Q03181); assay: Displacement of Fluormone-Pan-PPAR Green from human GST-tagged PPARdelta LBD at 20 uM by TR-FRET assay relative to control
T4 sequence (whole entry): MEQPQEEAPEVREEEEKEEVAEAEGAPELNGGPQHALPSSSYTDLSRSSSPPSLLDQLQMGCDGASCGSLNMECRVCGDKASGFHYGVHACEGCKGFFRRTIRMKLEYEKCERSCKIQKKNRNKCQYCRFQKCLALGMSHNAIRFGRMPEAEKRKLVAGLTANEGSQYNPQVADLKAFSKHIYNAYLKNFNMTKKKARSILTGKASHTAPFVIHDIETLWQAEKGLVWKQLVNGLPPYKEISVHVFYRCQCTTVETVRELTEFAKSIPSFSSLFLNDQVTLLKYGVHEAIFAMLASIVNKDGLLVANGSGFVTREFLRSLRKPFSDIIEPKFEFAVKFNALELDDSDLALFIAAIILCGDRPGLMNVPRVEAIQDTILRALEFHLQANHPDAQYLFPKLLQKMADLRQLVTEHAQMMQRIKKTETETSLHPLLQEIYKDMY

[5] = target: T4, Peroxisome proliferator-activated receptor delta (Homo sapiens); assay: Displacement of Fluormone-Pan-PPAR Green from human GST-tagged PPARdelta LBD by TR-FRET assay
[6] = target: T5, Cyclin-dependent kinase 5/CDK5 activator 1 (Homo sapiens) (UniProt Q00535+Q15078); assay: Inhibition of human CDK5/p25 up to 20 uM using histone H1 as substrate after 40 mins in presence of [gamma32P]ATP by scintillation counting; type: protein-complex assay
T5 sequence (Q00535 whole entry): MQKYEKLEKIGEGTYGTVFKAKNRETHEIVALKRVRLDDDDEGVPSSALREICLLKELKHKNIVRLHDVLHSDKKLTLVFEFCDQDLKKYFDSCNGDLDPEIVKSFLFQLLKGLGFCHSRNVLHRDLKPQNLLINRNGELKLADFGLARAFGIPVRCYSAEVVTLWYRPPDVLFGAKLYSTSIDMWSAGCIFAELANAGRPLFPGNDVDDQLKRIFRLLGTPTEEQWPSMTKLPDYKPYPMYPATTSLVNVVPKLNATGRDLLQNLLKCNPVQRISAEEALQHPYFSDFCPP
T5 sequence (Q15078 99-307 partner limits assumed): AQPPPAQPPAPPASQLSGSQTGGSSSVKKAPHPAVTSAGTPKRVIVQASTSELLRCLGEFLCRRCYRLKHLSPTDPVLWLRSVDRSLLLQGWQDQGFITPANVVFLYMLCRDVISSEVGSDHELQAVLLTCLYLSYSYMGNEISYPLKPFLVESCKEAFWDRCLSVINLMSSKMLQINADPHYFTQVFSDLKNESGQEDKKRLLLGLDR

[7] = target: T5, Cyclin-dependent kinase 5/CDK5 activator 1 (Homo sapiens); assay: Inhibition of human CDK5/p35 up to 20 uM using histone H1 as substrate after 40 mins in presence of [gamma32P]ATP by scintillation counting; type: protein-complex assay
[8] = Induction of adipogenesis in human bone marrow-derived mesenchymal stem cells assessed as adiponectin level at 20 uM measured on day 7 after 48 hrs by ELISA; type: functional, Mesenchymal stem cell
[9] = Induction of adipogenesis in human bone marrow-derived mesenchymal stem cells assessed as adiponectin level at 4 uM measured on day 7 after 48 hrs by ELISA; type: functional, Mesenchymal stem cell
[10] = target: Peroxisome proliferator-activated receptor delta (Homo sapiens) (UniProt Q03181); assay: Antagonist activity at human GST-tagged PPARdelta LBD assessed as reduction in GW501516-induced fluorescein-C33 coactivator recruitment at 1 uM by TR-FRET assay relative to control

CNC(=O)[C@H]1O[C@@H](n2cnc3c(NCc4cccc(I)c4)ncnc32)[C@H](O)[C@@H]1O [IB-MECA]
Activity [1]: inactive
Activity (Mesenchymal stem cell): Active
inhibition [2]: inactive
Activity (Mus musculus): Active
inhibition [3]: 16%
inhibition [4]: 48.3%
inhibition [5]: Dose-dependent effect
inhibition [6]: inactive
inhibition [7]: inactive
Activity [8]: 216 pg/mL
Activity [9]: 117 pg/mL
inhibition [10]: 14%
